# Patent publication US7189858B2, “N-phenyl substituted carbamoyloxyalkyl-azolium derivatives” (Basilea Pharmaceutica AG, priority 1999, dated 2007)
# Read-outs that look alike come from different tables or passages of the source.
# What was measured:
# [1] = type: in vitro ADME; settings: human
# [2] = rat
# Candida albicans = assay: Rat systemic candidiasis model (Fluconazole resistance); type: in vivo; settings: day 14 after infection
# Excerpt: (§1) Male Fisher rats, strain F344/DuCrj, were employed for experimental infection models such as systemic candidiasis, systemic aspergillosis and pulmonary aspergillosis model. Immunocompetent 4 weeks old rats were used for systemic candidiasis or systemic aspergillosis which occurred after infection with Candida albicans conidia of 5×10^6/rat or with Aspergillus fumigatus conidia of 6×10^5/rat via tail vein. Otherwise for pulmonary aspergillosis model, rats had been immunosuppressed with cortisone acetate treatments prior to infection with 2×10^5/rat intratrachially. Treatments were given twice on the first day and once daily on following 4 days both for systemic and pulmonary aspergillosis (Ib.i.+4q.d.), for systemic candidiasis rats were treated at 0, 4, 24, and 48 h after infection (Ib.i.d.+2q.d.). Effective dose 50% (ED50) values were determined on day 14 after infection.
# C. albicans CY1002 = assay: Rat systemic mycosis, C. albicans CY1002; type: in vivo; settings: for ED50: Candida albicans, CY1002, 336 h, read-out: Rat systemic mycosis ED50 on day 14, C. albicans CY1002
# Excerpt: as §1
# C. albicans CY3003 = assay: Rat systemic mycosis, C. albicans CY3003; type: in vivo; settings: for ED50: Candida albicans, CY3003, 336 h, read-out: Rat systemic mycosis ED50 on day 14, C. albicans CY3003
# Excerpt: as §1
# C. parapsilosis KULM219C = assay: Rat systemic mycosis, C. parapsilosis KULM219C; type: in vivo; settings: for ED50: Lodderomyces parapsilosis, KULM219C, 336 h, read-out: Rat systemic mycosis ED50 on day 14, C. parapsilosis KULM219C
# C. tropicalis CY5042 = assay: Rat systemic mycosis, C. tropicalis CY5042; type: in vivo; settings: for ED50: Candida tropicalis, CY5042, 336 h, read-out: Rat systemic mycosis ED50 on day 14, C. tropicalis CY5042
# [3] = system: FCZ^R - C. albicans UTHS93-2067; assay: Rat systemic mycosis, FCZ^R C. albicans UTHS93-2067; type: in vivo; settings: for ED50: Candida albicans, 336 h, read-out: Rat systemic mycosis ED50 on day 14, FCZ^R - C. albicans UTHS93-2067
# Excerpt: as §1
# A. fumigatus CF1003 = assay: Rat systemic mycosis, A. fumigatus CF1003; type: in vivo; settings: for ED50: Aspergillus fumigatus, CF1003, 336 h, read-out: Rat systemic mycosis ED50 on day 14, A. fumigatus CF1003
# Excerpt: as §1
# Aspergillus fumigatus = assay: Rat systemic aspergillosis model; type: in vivo; settings: day 14 after infection
# Excerpt: as §1
# Solubility (Table 1) = settings: solvent a = distilled water
structure (smiles),measurement,setting,value
"CNCC(=O)OCc1ccc(Cl)cc1N(C)C(=O)OC(C)[n+]1cnn(C[C@](O)(c2cc(F)ccc2F)[C@@H](C)c2nc(-c3ccc(C#N)cc3)cs2)c1.Cl.[I-] (stereo partly drawn) [Example 7.10., 1-[[N-methyl-N-2-(methylamino)acetoxymethyl-5-chloro-phenyl]carbamoyloxy]ethyl-1-[(2R,3R)-2-(2,5-difluorophenyl)-2-hydroxy-3-[4-(4-cyanophenyl)thiazol-2-yl]butyl]-1H-[1,2,4]triazol-4-ium iodide hydrochloride]","Conversion (half-life) to (2R,3R)-3-[4-(4-cyanophenyl)thiazol-2-yl)]-2-(2,5-difluorophenyl)-1-(1H-1,2,4-triazol-1-yl)-butan-2-ol (u) in plasma",[1],3 min in human plasma
"CC(=O)OCc1ccccc1N(C)C(=O)OC[n+]1cnn(C[C@](O)(c2cc(F)ccc2F)[C@@H](C)c2nc(-c3ccc(C#N)cc3)cs2)c1.[Cl-] [Example 5, [[N-methyl-N-2-(acetoxymethyl)phenyl]carbamoyloxy]methyl-1-[(2R,3R)-2-(2,5-difluorophenyl)-2-hydroxy-3-[4-(4-cyanophenyl)thiazol-2-yl]butyl]-1H-[1,2,4]triazol-4-ium chloride]","Conversion (half-life) to (2R,3R)-3-[4-(4-cyanophenyl)thiazol-2-yl)]-2-(2,5-difluorophenyl)-1-(1H-1,2,4-triazol-1-yl)-butan-2-ol (u) in plasma",[2],<2 min in rat plasma
"OC(Cn1cncn1)(Cn1cncn1)c1ccc(F)cc1F [Fluconazole, reference compound]",ED50,"Candida albicans; Candida albicans, po, 336 h, p.o.",21.8 µmol/kg
same,ED50,C. albicans CY1002; PO.,1.9 µmol/kg
same,ED50,C. albicans CY3003; PO.,1 µmol/kg
same,ED50,C. parapsilosis KULM219C; PO.,17 µmol/kg
same,ED50,C. tropicalis CY5042; PO.,2 µmol/kg
same,ED50,[3]; PO.,8.1 µmol/kg
same,ED50,A. fumigatus CF1003; PO.,94 µmol/kg
"CCC(C)n1ncn(-c2ccc(N3CCN(c4ccc(OCC5COC(Cn6cncn6)(c6ccc(Cl)cc6Cl)O5)cc4)CC3)cc2)c1=O (stereo not shown) [Itraconazole, 4-[4-[4-[4-[[2-(2,4-Dichlorophenyl)-2-(1H-1,2,4-triazol-1-ylmethyl)-1,3-dioxolan-4-yl]methoxy]phenyl]-1-piperazinyl]phenyl]-2,4-dihydro-2-(1-methylpropyl)-3H-[1,2,4]triazol-3-one, reference compound]",ED50,"Aspergillus fumigatus; Aspergillus fumigatus, po, 336 h, p.o.",4.9 µmol/kg
same,ED50,C. albicans CY1002; PO.,4.7 µmol/kg
same,ED50,C. albicans CY3003; PO.,2.3 µmol/kg
same,ED50,C. parapsilosis KULM219C; PO.,20 µmol/kg
same,ED50,C. tropicalis CY5042; PO.,2 µmol/kg
same,ED50,[3]; PO.,4.2 µmol/kg
same,ED50,A. fumigatus CF1003; PO.,8.9 µmol/kg
"CC(C)NCc1ccccc1N(C)C(=O)OC(C)[n+]1cnn(C[C@](O)(c2cc(F)ccc2F)[C@@H](C)c2nc(-c3ccc(C#N)cc3)cs2)c1.Cl.[Cl-] (stereo partly drawn) [Example 6, 1-[[N-methyl-N-2-(isopropylaminomethyl)phenyl]carbamoyloxy]ethyl-1-[(2R,3R)-2-(2,5-difluorophenyl)-2-hydroxy-3-[4-(4-cyanophenyl)thiazol-2-yl]butyl]-1H-[1,2,4]triazol-4-ium chloride hydrochloride]",Solubility,Solubility (Table 1),>10000 µg/mL
"CNCC(=O)OCc1cccnc1N(C)C(=O)OC(C)[n+]1cnn(C[C@](O)(c2cc(F)ccc2F)[C@@H](C)c2nc(-c3ccc(C#N)cc3)cs2)c1.Cl.[Cl-] (stereo partly drawn) [Example 7, 1-[[N-methyl-N-3-[(methylamino)acetoxymethyl]pyridin-2-yl]carbamoyloxy)ethyl-1-[(2R,3R)-2-(2,5-difluorophenyl)-2-hydroxy-3-[4-(4-cyanophenyl)thiazol-2-yl]butyl]-1H-[1,2,4]triazol-4-ium chloride hydrochloride]","Conversion (half-life) to (2R,3R)-3-[4-(4-cyanophenyl)thiazol-2-yl)]-2-(2,5-difluorophenyl)-1-(1H-1,2,4-triazol-1-yl)-butan-2-ol (u) in plasma",[1],<2 min in human plasma
same,"ED50, Systemic Fluconazole resistance candidiasis",Candida albicans; i.v.,13.3 µmol/kg
same,"ED50, Systemic Fluconazole resistance candidiasis",Candida albicans; p.o.,14.1 µmol/kg
same,"ED50, Systemic aspergillosis",Aspergillus fumigatus; i.v.,13.5 µmol/kg
same,"ED50, Systemic aspergillosis",Aspergillus fumigatus; p.o.,8.8 µmol/kg
same,"Rat systemic mycosis ED50 on day 14, C. albicans CY1002",C. albicans CY1002; I.V.,4 µmol/kg
same,"Rat systemic mycosis ED50 on day 14, C. albicans CY1002",C. albicans CY1002; PO.,4 µmol/kg
same,"Rat systemic mycosis ED50 on day 14, C. albicans CY3003",C. albicans CY3003; I.V.,1.6 µmol/kg
same,"Rat systemic mycosis ED50 on day 14, C. albicans CY3003",C. albicans CY3003; PO.,2.5 µmol/kg
same,"Rat systemic mycosis ED50 on day 14, C. parapsilosis KULM219C",C. parapsilosis KULM219C; I.V.,7.6 µmol/kg
same,"Rat systemic mycosis ED50 on day 14, C. parapsilosis KULM219C",C. parapsilosis KULM219C; PO.,6.5 µmol/kg
same,"Rat systemic mycosis ED50 on day 14, C. tropicalis CY5042",C. tropicalis CY5042; I.V.,1 µmol/kg
same,"Rat systemic mycosis ED50 on day 14, C. tropicalis CY5042",C. tropicalis CY5042; PO.,1 µmol/kg
same,"Rat systemic mycosis ED50 on day 14, FCZ^R - C. albicans UTHS93-2067",[3]; I.V.,2.8 µmol/kg
same,"Rat systemic mycosis ED50 on day 14, FCZ^R - C. albicans UTHS93-2067",[3]; PO.,7 µmol/kg
same,"Rat systemic mycosis ED50 on day 14, A. fumigatus CF1003",A. fumigatus CF1003; I.V.,11 µmol/kg
same,"Rat systemic mycosis ED50 on day 14, A. fumigatus CF1003",A. fumigatus CF1003; PO.,9 µmol/kg
"CNCC(=O)OCc1cc(F)ccc1N(C)C(=O)OC(C)[n+]1cnn(C[C@](O)(c2cc(F)ccc2F)[C@@H](C)c2nc(-c3ccc(C#N)cc3)cs2)c1.Cl.[I-] (stereo partly drawn) [Example 7.4., 1-[[N-methyl-N-2-(methylamino)acetoxymethyl-4-fluoro-phenyl]carbamoyloxy]ethyl-1-[(2R,3R)-2-(2,5-difluorophenyl)-2-hydroxy-3-[4-(4-cyanophenyl)thiazol-2-yl]butyl]-1H-[1,2,4]triazol-4-ium iodide hydrochloride]","Conversion (half-life) to (2R,3R)-3-[4-(4-cyanophenyl)thiazol-2-yl)]-2-(2,5-difluorophenyl)-1-(1H-1,2,4-triazol-1-yl)-butan-2-ol (u) in plasma",[1],2 min in human plasma
"CNCC(=O)OCc1cc(F)c(F)cc1N(C)C(=O)OC(C)[n+]1cnn(C[C@](O)(c2cc(F)ccc2F)[C@@H](C)c2nc(-c3ccc(C#N)cc3)cs2)c1.Cl.[Cl-] (stereo partly drawn) [Example 7.3., 1-[[N-methyl-N-2-(methylamino)acetoxymethyl-4,5-difluorophenyl]carbamoyloxy]ethyl-1-[(2R,3R)-2-(2,5-difluorophenyl)-2-hydroxy-3-[4-(4-cyanophenyl)thiazol-2-yl]butyl]-1H-[1,2,4]triazol-4-ium chloride hydrochloride]","Conversion (half-life) to (2R,3R)-3-[4-(4-cyanophenyl)thiazol-2-yl)]-2-(2,5-difluorophenyl)-1-(1H-1,2,4-triazol-1-yl)-butan-2-ol (u) in plasma",[1],6 min in human plasma
"CNCC(=O)OCc1c(F)cccc1N(C)C(=O)OC(C)[n+]1cnn(C[C@](O)(c2cc(F)ccc2F)[C@@H](C)c2nc(-c3ccc(C#N)cc3)cs2)c1.Cl.[Cl-] (stereo partly drawn) [Example 7.13., 1-[[N-methyl-N-2-(methylamino)acetoxymethyl-3-fluoro-phenyl]carbamoyloxy]ethyl-1-[(2R,3R)-2-(2,5-difluorophenyl)-2-hydroxy-3-[4-(4-cyanophenyl)thiazol-2-yl]butyl]-1H-[1,2,4]triazol-4-ium chloride hydrochloride]","Conversion (half-life) to (2R,3R)-3-[4-(4-cyanophenyl)thiazol-2-yl)]-2-(2,5-difluorophenyl)-1-(1H-1,2,4-triazol-1-yl)-butan-2-ol (u) in plasma",[1],2 min in human plasma
